Experimental data taken from patent US20070015279A1, “Methods of Selecting Pancreatic Endocrine Cells Using Protein Synthesis Inhibitors” (AmCyte Inc., priority 2005, published 2007).

Assays:
[1] = system: HD522B P0 cells; experiment: G418 sulfate treatment of HD522B P0 cells, cell death and confluence; format: cell-based, human; details: for Cell confluence (estimated): one week recovery
Method: (§1) HD522B P0 cells were cultured in M3 for 4 days; G418 sulfate in M3 at the following concentrations (μg/ml) was added to the culture: 0, 5, 25, 50, 100, 200, 500, and 1000. The cells were cultured in the presence of G418 sulfate for 48 h, switched to recovery medium (M3/ITS/LIF) for one week and harvested for quantitative RT-PCR analysis. The control group had to be harvested two days post recovery due to confluence. […] At lower dosages, cell death occurred between 1 and 3 days after switch to recovery medium. Cell proliferation could be observed during the recovery period in most of the conditions except in cultures containing 500 and 1000 μg/ml G418 sulfate. Cell confluence from each plate was estimated as following: 0 (100%), 5 (100%), 25 (95%), 50 (85%), 100 (50%), 200 (20%), 500 (less than 5%), 1000 (less than 2%). Approximately equal amount of cells from each plate were used for analysis based on the estimated confluences of each plate except the plates received 500 and 1000 μg/ml G418 sulfate treatment. The β-actin mRNA copy numbers have no significant variation in control group and cells received 5, 25, 50, and 100 μg/ml G418 whereas cells that received 200 to 1000 μg/ml G418 have much lower β-actin expression especially the 500 and 1000 μg/ml samples. This correlated well with the decreased cell confluence in these samples. The expression of endocrine gene markers increased as the concentration of G418 concentration increased to 100 μg/ml and decreased when G418 concentration is above 200 μg/ml. The expression of amylase, an exocrine marker, and nestin, a marker of mesenchymal cell, decreased as G418 concentration increased.

[2] = system: cultured adult human pancreatic cells; experiment: G418 sulfate treatment of HD522B P0 cells, marker mRNA by quantitative RT-PCR; format: cell-based
Method: as §1

[3] = system: cells; details: cited from earlier work
[4] = system: 30S ribosomal subunit; details: cited from earlier work

Substance: geneticin sulfate [G418 Sulfate]
- Cell confluence (estimated) ([1]; 5 μg/ml 48 h): 100%
- Cell confluence (estimated) ([1]; 25 μg/ml 48 h): 95%
- Cell confluence (estimated) ([1]; 50 μg/ml 48 h): 85%
- Cell confluence (estimated) ([1]; 100 μg/ml 48 h): 50%
- Cell confluence (estimated) ([1]; 200 μg/ml 48 h): 20%
- Cell confluence (estimated) ([1]; 500 μg/ml 48 h): less than 5%
- Cell confluence (estimated) ([1]; 1000 μg/ml 48 h): less than 2%
- time to observed cell death ([1]; 500 and 1000 μg/ml groups, from start of treatment): ≤ 24 h
- Amylase/β-actin ([2]; 5 μg/ml 48 h): 1.72E−03
- CK19/β-actin ([2]; 5 μg/ml 48 h): 7.51E−01
- Delta/β-actin ([2]; 5 μg/ml 48 h): 1.24E−04
- GCK/β-actin ([2]; 5 μg/ml 48 h): 2.20E−04
- GLUT2/β-actin ([2]; 5 μg/ml 48 h): 4.36E−05
- Gcg/β-actin ([2]; 5 μg/ml 48 h): 1.97E−02
- Insulin/β-actin ([2]; 5 μg/ml 48 h): 1.67E+00
- NCAM/β-actin ([2]; 5 μg/ml 48 h): 1.51E−01
- Nestin/β-actin ([2]; 5 μg/ml 48 h): 2.52E−03
- NeuroD/β-actin ([2]; 5 μg/ml 48 h): 1.26E−03
- Ngn3/β-actin ([2]; 5 μg/ml 48 h): 2.45E−07
- Nkx2.2/β-actin ([2]; 5 μg/ml 48 h): 7.84E−05
- Nkx6.1/β-actin ([2]; 5 μg/ml 48 h): 4.52E−04
- Notch1/β-actin ([2]; 5 μg/ml 48 h): 8.14E−05
- P48/β-actin ([2]; 5 μg/ml 48 h): 8.62E−03
- PDX/β-actin ([2]; 5 μg/ml 48 h): 7.02E−04
- Pax4/β-actin ([2]; 5 μg/ml 48 h): 9.82E−06
- SST/β-actin ([2]; 5 μg/ml 48 h): 5.88E−02
- Amylase/β-actin ([2]; 25 μg/ml 48 h): 6.09E−04
- CK19/β-actin ([2]; 25 μg/ml 48 h): 1.06E+00
- Delta/β-actin ([2]; 25 μg/ml 48 h): 1.08E−04
- GCK/β-actin ([2]; 25 μg/ml 48 h): 2.51E−04
- GLUT2/β-actin ([2]; 25 μg/ml 48 h): 1.10E−04
- Gcg/β-actin ([2]; 25 μg/ml 48 h): 4.56E−02
- Insulin/β-actin ([2]; 25 μg/ml 48 h): 3.40E+00
- NCAM/β-actin ([2]; 25 μg/ml 48 h): 2.23E−01
- Nestin/β-actin ([2]; 25 μg/ml 48 h): 1.24E−03
- NeuroD/β-actin ([2]; 25 μg/ml 48 h): 1.79E−03
- Ngn3/β-actin ([2]; 25 μg/ml 48 h): 9.19E−07
- Nkx2.2/β-actin ([2]; 25 μg/ml 48 h): 2.35E−04
- Nkx6.1/β-actin ([2]; 25 μg/ml 48 h): 6.45E−04
- Notch1/β-actin ([2]; 25 μg/ml 48 h): 3.02E−04
- P48/β-actin ([2]; 25 μg/ml 48 h): 1.12E−02
- PDX/β-actin ([2]; 25 μg/ml 48 h): 1.11E−03
- Pax4/β-actin ([2]; 25 μg/ml 48 h): 1.24E−05
- SST/β-actin ([2]; 25 μg/ml 48 h): 1.03E−01
- Amylase/β-actin ([2]; 50 μg/ml 48 h): 4.50E−04
- CK19/β-actin ([2]; 50 μg/ml 48 h): 1.02E+00
- Delta/β-actin ([2]; 50 μg/ml 48 h): 7.70E−05
- GCK/β-actin ([2]; 50 μg/ml 48 h): 3.01E−04
- GLUT2/β-actin ([2]; 50 μg/ml 48 h): 2.17E−04
- Gcg/β-actin ([2]; 50 μg/ml 48 h): 9.04E−02
- Insulin/β-actin ([2]; 50 μg/ml 48 h): 5.51E+00
- NCAM/β-actin ([2]; 50 μg/ml 48 h): 1.51E−01
- Nestin/β-actin ([2]; 50 μg/ml 48 h): 5.42E−04
- NeuroD/β-actin ([2]; 50 μg/ml 48 h): 3.10E−03
- Ngn3/β-actin ([2]; 50 μg/ml 48 h): 2.13E−06
- Nkx2.2/β-actin ([2]; 50 μg/ml 48 h): 4.03E−04
- Nkx6.1/β-actin ([2]; 50 μg/ml 48 h): 6.82E−04
- Notch1/β-actin ([2]; 50 μg/ml 48 h): 4.91E−04
- P48/β-actin ([2]; 50 μg/ml 48 h): 9.21E−03
- PDX/β-actin ([2]; 50 μg/ml 48 h): 1.28E−03
- Pax4/β-actin ([2]; 50 μg/ml 48 h): 2.63E−05
- SST/β-actin ([2]; 50 μg/ml 48 h): 1.84E−01
- Amylase/β-actin ([2]; 100 μg/ml 48 h): 5.09E−04
- CK19/β-actin ([2]; 100 μg/ml 48 h): 9.98E−01
- Delta/β-actin ([2]; 100 μg/ml 48 h): 1.16E−04
- GCK/β-actin ([2]; 100 μg/ml 48 h): 8.81E−04
- GLUT2/β-actin ([2]; 100 μg/ml 48 h): 4.53E−04
- Gcg/β-actin ([2]; 100 μg/ml 48 h): 1.85E−01
- Insulin/β-actin ([2]; 100 μg/ml 48 h): 1.06E+01
- NCAM/β-actin ([2]; 100 μg/ml 48 h): 9.73E−02
- Nestin/β-actin ([2]; 100 μg/ml 48 h): 3.48E−04
- NeuroD/β-actin ([2]; 100 μg/ml 48 h): 6.94E−03
- Ngn3/β-actin ([2]; 100 μg/ml 48 h): 2.71E−06
- Nkx2.2/β-actin ([2]; 100 μg/ml 48 h): 8.70E−04
- Nkx6.1/β-actin ([2]; 100 μg/ml 48 h): 9.19E−04
- Notch1/β-actin ([2]; 100 μg/ml 48 h): 5.39E−04
- P48/β-actin ([2]; 100 μg/ml 48 h): 7.93E−03
- PDX/β-actin ([2]; 100 μg/ml 48 h): 1.72E−03
- Pax4/β-actin ([2]; 100 μg/ml 48 h): 5.31E−05
- SST/β-actin ([2]; 100 μg/ml 48 h): 4.63E−01
- Amylase/β-actin ([2]; 200 μg/ml 48 h): 1.29E−03
- CK19/β-actin ([2]; 200 μg/ml 48 h): 4.09E−01
- Delta/β-actin ([2]; 200 μg/ml 48 h): 2.67E−04
- GCK/β-actin ([2]; 200 μg/ml 48 h): 2.74E−03
- GLUT2/β-actin ([2]; 200 μg/ml 48 h): 1.33E−03
- Gcg/β-actin ([2]; 200 μg/ml 48 h): 5.44E−01
- Insulin/β-actin ([2]; 200 μg/ml 48 h): 1.56E+01
- NCAM/β-actin ([2]; 200 μg/ml 48 h): 6.17E−02
- Nestin/β-actin ([2]; 200 μg/ml 48 h): 1.81E−03
- NeuroD/β-actin ([2]; 200 μg/ml 48 h): 1.76E−02
- Ngn3/β-actin ([2]; 200 μg/ml 48 h): 2.37E−06
- Nkx2.2/β-actin ([2]; 200 μg/ml 48 h): 3.31E−03
- Nkx6.1/β-actin ([2]; 200 μg/ml 48 h): 1.99E−03
- Notch1/β-actin ([2]; 200 μg/ml 48 h): 1.60E−03
- P48/β-actin ([2]; 200 μg/ml 48 h): 1.04E−02
- PDX/β-actin ([2]; 200 μg/ml 48 h): 6.90E−03
- Pax4/β-actin ([2]; 200 μg/ml 48 h): 2.32E−04
- SST/β-actin ([2]; 200 μg/ml 48 h): 1.37E+00
- Amylase/β-actin ([2]; 500 μg/ml 48 h): 7.63E−03
- CK19/β-actin ([2]; 500 μg/ml 48 h): 1.03E−01
- Delta/β-actin ([2]; 500 μg/ml 48 h): 1.27E−03
- GCK/β-actin ([2]; 500 μg/ml 48 h): 1.85E−02
- GLUT2/β-actin ([2]; 500 μg/ml 48 h): 1.09E−02
- Gcg/β-actin ([2]; 500 μg/ml 48 h): 3.80E+00
- Insulin/β-actin ([2]; 500 μg/ml 48 h): 8.21E+01
- NCAM/β-actin ([2]; 500 μg/ml 48 h): 5.51E−02
- Nestin/β-actin ([2]; 500 μg/ml 48 h): 3.37E−03
- NeuroD/β-actin ([2]; 500 μg/ml 48 h): 1.42E−01
- Ngn3/β-actin ([2]; 500 μg/ml 48 h): 0.00E+00
- Nkx2.2/β-actin ([2]; 500 μg/ml 48 h): 2.84E−02
- Nkx6.1/β-actin ([2]; 500 μg/ml 48 h): 1.28E−02
- Notch1/β-actin ([2]; 500 μg/ml 48 h): 1.93E−03
- P48/β-actin ([2]; 500 μg/ml 48 h): 2.43E−02
- PDX/β-actin ([2]; 500 μg/ml 48 h): 5.35E−02
- Pax4/β-actin ([2]; 500 μg/ml 48 h): 1.50E−03
- SST/β-actin ([2]; 500 μg/ml 48 h): 8.06E+00
- Amylase/β-actin ([2]; 1000 μg/ml 48 h): 1.24E−02
- CK19/β-actin ([2]; 1000 μg/ml 48 h): 1.44E−02
- Delta/β-actin ([2]; 1000 μg/ml 48 h): 4.18E−03
- GCK/β-actin ([2]; 1000 μg/ml 48 h): 2.39E−02
- GLUT2/β-actin ([2]; 1000 μg/ml 48 h): 1.29E−02
- Gcg/β-actin ([2]; 1000 μg/ml 48 h): 4.98E+00
- Insulin/β-actin ([2]; 1000 μg/ml 48 h): 2.02E+02
- NCAM/β-actin ([2]; 1000 μg/ml 48 h): 3.31E−02
- Nestin/β-actin ([2]; 1000 μg/ml 48 h): 0.00E+00
- NeuroD/β-actin ([2]; 1000 μg/ml 48 h): 1.72E−01
- Ngn3/β-actin ([2]; 1000 μg/ml 48 h): 0.00E+00
- Nkx2.2/β-actin ([2]; 1000 μg/ml 48 h): 6.69E−02
- Nkx6.1/β-actin ([2]; 1000 μg/ml 48 h): 1.37E−02
- Notch1/β-actin ([2]; 1000 μg/ml 48 h): 3.99E−03
- P48/β-actin ([2]; 1000 μg/ml 48 h): 5.95E−02
- PDX/β-actin ([2]; 1000 μg/ml 48 h): 4.87E−02
- Pax4/β-actin ([2]; 1000 μg/ml 48 h): 7.64E−04
- SST/β-actin ([2]; 1000 μg/ml 48 h): 2.43E+01

Substance: neomycin
- IC50, viable cell number [3]: 2 µg/mL
- reduction of the rate of 30S formation compared with control cells ([4]; 3 μg/mL): about 80%
- IC50 for 30S particle formation [4]: equal to the IC50 for inhibition of translation
